In patent US10898576B2, “Glucocorticoid combined with polyethylene glycol-modified interleukin 2 for treating respiratory disease” (priority 2016, dated 2021):

Legend:
asthma mice [1] = experiment: Example 6: asthma mice challenged days 9-18, local atomization vs intraperitoneal Dex, lung function and pathology; type: in vivo, BALB/c mice; details: 40 μg Dex per mouse
Method: (§1) Lung histopathology. The lungs of mice were fixed in 10% formalin, embedded in paraffin, sectioned, stained with H&E (Merck & Co, Inc) and PAS (Sigma), respectively, and examined under a 20-fold microscope.
Lung function measurement. After being anesthetized with 2% pentobarbital sodium, the mice were subjected to respiratory provocation test with methacholine (Sigma) at 3.125 mg/ml, 6.25 mg/ml, and 12.5 mg/ml prepared in PBS, respectively. The airway resistance curve was plotted and analyzed (FinePoint NAM). The assay was performed using the BUXCO Airway Resistance and Lung Compliance System (BUXCO Electronics).
Modeling of asthma model mice and administration. The same mice as in Example 1 were used for asthma modeling, which were sensitized by intraperitoneal injection with 100 μg of ovalbumin (OVA) (Sigma) and 2 mg of Al(OH)3 for injection (Sigma) on days 1 and 8, and challenged by daily nasal instillation with 20 μl of 2% OVA on days 9-18. According to the purpose of the experiment, 40 μg Dex was intraperitoneally injected on days 12-18, 14-18 and 16-18, or 25,000 IU IL-2(PEG)+5 μg Bud was administered by atomization on days 16-18, respectively.
Administration and histopathological analysis were performed in the same manner as in Example 2, and lung function test was performed in the same manner as in Example 3. […]

[2] = tested on: Treg in bronchoalveolar lavage fluid; experiment: Flow cytometry of Treg in bronchoalveolar lavage fluid of OVA asthma mice after atomization in the lung; type: in vivo, BALB/c mice; details: same dose of the drug alone as in the combination, atomization days 12-14
Method: (§2) Female BALB/c mice aged 6-8 weeks (purchased from SLAC Laboratory Animal Co., Ltd.) were used for modeling of asthma, which were sensitized by intraperitoneal injection with 100 μg of ovalbumin (OVA) (Sigma) and 2 mg of Al(OH)3 for injection (Sigma) on days 1 and 8, and challenged by daily nasal instillation with 20 μl of 2% OVA on days 9-14 (FIG. 1A).
(§3) The asthma mice model of Example 1 were subjected to drug intervention while challenge by nasal instillation on days 12-14. The specific administration method was that the mice were anesthetized with 7% chloral hydrate (Sangon Biotech (Shanghai) Co., Ltd.) and then administrated quantitatively through atomization in the lung using an atomization metered dosing device (MicroSprayer®—Model IA-1B), and the administration volume was fixed at 25 ul/mouse, and the administration dose was adjusted by the level of concentration. On the 15th day, relevant indicators were detected.
Collection of bronchoalveolar lavage fluid. The mice were sacrificed by cervical dislocation. […] The IFN-γ, IL-4, IL-10, and IL-13 in the supernatant were measured by using commercial ELISA kit (R&D Corp).
Flow cytometry. […] All results were analyzed by FlowJo software (Treestar).

asthma mice [3] = experiment: Lung histopathology (H&E, PAS) of OVA asthma mice; type: in vivo, BALB/c mice; details: same dose of the drug alone as in the combination, atomization days 12-14
Method: as §2, §3, §1

CTLL-2 cell = CTLL-2 cell assay of IL-2 activity; type: cell-based; details: compared with IL-2 working standard

C[C@@H]1C[C@H]2[C@@H]3CCC4=CC(=O)C=C[C@]4(C)[C@@]3(F)[C@@H](O)C[C@]2(C)[C@@]1(O)C(=O)CO [Dex, dexamethasone]
duration of intraperitoneal injection required to exert a therapeutic effect on asthma (asthma mice [1]): at least 7 consecutive days

IL-2: human-derived IL-2, sequence SEQ ID NO. 1 (Xiamen Amoytop Biotech Co., Ltd.)
Treg in bronchoalveolar lavage fluid, single drug alone [2]: could not be achieved
pathological manifestations of lung inflammation, single drug alone (asthma mice [3]): could not be achieved

PEG-modified IL-2: IL-2 modified with a non-branched PEG of a molecular weight of 20 kD, main site N-terminus
activity (CTLL-2 cell): comparable to that of the IL-2 working standard
